# Data: US20070031394A1, “Method of treating neurological disorders” (priority 2005, published 2007)
# How the values were obtained:
# Type in all cases: in vivo, human
# essential tremor [1] = test: Riboflavin daily in 15 persons over 50 with essential tremor, Fahn-Tolosa-Marin clinical tremor rating; design: key to Tremor Score After Rx, L Hand / Tremor Score After Rx, Head / Tremor Score After Rx, R Hand / Tremor Score After Rx, Hands: 0=Normal; 1=Slight; 2=Moderately abnormal; 3=Markedly abnormal; 4=Severely abnormal; settings: for Tremor Score After Rx, Hands: before Rx Hands 1
# Method: (§1) 15 persons over the age of 50 were tested, utilizing daily dosages of between 400 and 800 mg of riboflavin. Riboflavin was the only vitamin used for those patients who were on other tremor medications. These patients were continued on them.
# Patients were evaluated with arms outstretched, elbows bent and hands near the chin, writing with both hands, drinking holding a cup with either hand, and pouring water with either hand. Evaluation was based on a four-point scale as published by Fahn, Tolosa and Marin, Clinical Rating Scale for Tremor in Parkinson's Disease and Movement Disorders [Williams and Wilkins, 1993].
# essential tremor [2] = test: as above; settings: 200 mg to 1000 mg of riboflavin on a daily basis
# [3] = Side effects in the 15-person riboflavin test
# Method: as §1
# [4] = tested on: tremor on action and intention due to Depakote; seizures; test: One patient with severe epilepsy and Depakote-induced tremor treated with the inventive vitamin therapy; settings: one patient with severe epilepsy on high dose Depakote
# Excerpt: Other conditions that are commonly seen in patients with essential tremor, such as deafness, motion sickness, balance difficulties, and cognitive problems may be benefited by this treatment. Additionally, patients who develop tremors due to the use of medications that cause tremor (such as Depakote and Lithium) may benefit by the use of the inventive vitamin therapy. […] Other neurological conditions, such as epilepsy, when associated with tremor, may be benefited by the inventive vitamin therapy.
# essential tremor [5] = test: One patient, sequential course of riboflavin with/without coenzyme Q10 and B vitamins, tremor score; design: key to tremor score, Head / tremor score, Right Hand / tremor score, Left Hand: 0=Normal; 1=Slight; 2=Moderately abnormal; 3=Markedly abnormal; 4=Severely abnormal
# Method: For one patient, before beginning a course of therapy in accordance with the inventive treatment, that patient's tremor score was Head 0, Right Hand 2, Left Hand 3. Treatment commenced for three months as follows:
# The tremor score, after three months of treatment, improved to Head 0, Right Hand 1, Left Hand 2. Treatment then continued for an additional three months with an increase in the daily dosage of Riboflavin to 800 mg. The tremor score was then measured to be Head 0, Right Hand 0, Left Hand 1. […] Moreover, if treatment was resumed, there was a return to reduced tremor levels after 2 to 3 days.
# [6] = after an additional three months with Riboflavin increased to 800 mg daily, same co-administered vitamins and coenzyme Q10
compound,measurement,setting,value
"Cc1cc2nc3c(=O)[nH]c(=O)nc-3n(C[C@H](O)[C@H](O)[C@H](O)CO)c2cc1C [Riboflavin, riboflavin]","Tremor Score After Rx, Hands","essential tremor [1]; patient # 1, 400 mg daily, 6 wks., concomitant None",Hands 1
same,"Tremor Score After Rx, Head","essential tremor [1]; patient # 1, 400 mg daily, 6 wks., before Rx Head 2, concomitant tremor medications None",Head 1
same,"Tremor Score After Rx, Hands","essential tremor [1]; patient # 2, 600 mg daily, 3 mos., concomitant None",Hands 1
same,"Tremor Score After Rx, Head","essential tremor [1]; patient # 2, 600 mg daily, 3 mos., before Rx Head 2, concomitant None",Head 1
same,"Tremor Score After Rx, Head","essential tremor [1]; patient # 3, 400 mg daily, 4 wks., before Rx Head 0, concomitant None",Head 0
same,"Tremor Score After Rx, L Hand","essential tremor [1]; patient # 3, 400 mg daily, 4 wks., before Rx L Hand 4, concomitant None",L Hand 3
same,"Tremor Score After Rx, R Hand","essential tremor [1]; patient # 3, 400 mg daily, 4 wks., before Rx R Hand 3, concomitant None",R Hand 2
same,"Tremor Score After Rx, Head","essential tremor [1]; patient # 4, 800 mg daily, 2 wks., before Rx Head 0, concomitant None",Head 0
same,"Tremor Score After Rx, L Hand","essential tremor [1]; patient # 4, 800 mg daily, 2 wks., before Rx L Hand 3, concomitant None",L Hand 2
same,"Tremor Score After Rx, R Hand","essential tremor [1]; patient # 4, 800 mg daily, 2 wks., before Rx R Hand 2, concomitant None",R Hand 2
same,"Tremor Score After Rx, Head","essential tremor [1]; patient # 5, 400 mg daily, 7 mos., before Rx Head 0, concomitant Inderal LA 80 mg.",Head 0
same,"Tremor Score After Rx, L Hand","essential tremor [1]; patient # 5, 400 mg daily, 7 mos., before Rx L Hand 3, concomitant Inderal LA 80 mg.",L Hand 2
same,"Tremor Score After Rx, R Hand","essential tremor [1]; patient # 5, 400 mg daily, 7 mos., before Rx R Hand 2, concomitant Inderal LA 80 mg.",R Hand 2
same,"Tremor Score After Rx, Head","essential tremor [1]; patient # 6, 400 mg daily, 12 mos., before Rx Head 0, concomitant Inderal LA 60",Head 0
same,"Tremor Score After Rx, L Hand","essential tremor [1]; patient # 6, 400 mg daily, 12 mos., before Rx L Hand 2, concomitant Inderal LA 60",L Hand 1
same,"Tremor Score After Rx, R Hand","essential tremor [1]; patient # 6, 400 mg daily, 12 mos., before Rx R Hand 2, concomitant Inderal LA 60",R Hand 1
same,"Tremor Score After Rx, Head","essential tremor [1]; patient # 7, 400 mg daily, 4 wks., before Rx Head 0, concomitant None",Head 0
same,"Tremor Score After Rx, L Hand","essential tremor [1]; patient # 7, 400 mg daily, 4 wks., before Rx L Hand 2, concomitant None",L Hand 1
same,"Tremor Score After Rx, R Hand","essential tremor [1]; patient # 7, 400 mg daily, 4 wks., before Rx R Hand 2, concomitant None",R Hand 1
same,"Tremor Score After Rx, Head","essential tremor [1]; patient # 8, 600 mg daily, 4 wks., before Rx Head 0, concomitant Topamax",Head 0
same,"Tremor Score After Rx, L Hand","essential tremor [1]; patient # 8, 600 mg daily, 4 wks., before Rx L hand 4, concomitant Topamax",L Hand 3
same,"Tremor Score After Rx, R Hand","essential tremor [1]; patient # 8, 600 mg daily, 4 wks., before Rx R hand 4, concomitant Topamax",R Hand 3
same,"Tremor Score After Rx, Head","essential tremor [1]; patient # 9, 400 mg daily, 4 wks., before Rx Head 0, concomitant Mysoline, Inderal and Topamax",Head 0
same,"Tremor Score After Rx, L Hand","essential tremor [1]; patient # 9, 400 mg daily, 4 wks., before Rx L Hand 4, concomitant Mysoline, Inderal and Topamax",L hand 3
same,"Tremor Score After Rx, R Hand","essential tremor [1]; patient # 9, 400 mg daily, 4 wks., before Rx R Hand 4, concomitant Mysoline, Inderal and Topamax",R Hand 4
same,"Tremor Score After Rx, Head","essential tremor [1]; patient # 10, 800 mg daily, 4 mos., before Rx Head 0, concomitant Mysoline, Inderal and Topamax",Head 0
same,"Tremor Score After Rx, L Hand","essential tremor [1]; patient # 10, 800 mg daily, 4 mos., before Rx L Hand 3, concomitant Mysoline, Inderal and Topamax",L Hand 2
same,"Tremor Score After Rx, R Hand","essential tremor [1]; patient # 10, 800 mg daily, 4 mos., before Rx R Hand 4, concomitant Mysoline, Inderal and Topamax",R Hand 4
same,"Tremor Score After Rx, Head","essential tremor [1]; patient # 11, 400 mg daily, 1 year, before Rx Head 2, concomitant None",Head 1
same,"Tremor Score After Rx, L Hand","essential tremor [1]; patient # 11, 400 mg daily, 1 year, before Rx L Hand 2, concomitant None",L Hand 1
same,"Tremor Score After Rx, R Hand","essential tremor [1]; patient # 11, 400 mg daily, 1 year, before Rx R Hand 2, concomitant None",R Hand 1
same,"Tremor Score After Rx, Head","essential tremor [1]; patient # 12, 400 mg daily, 2 wks., before Rx Head not given, concomitant None",Head 2
same,"Tremor Score After Rx, L Hand","essential tremor [1]; patient # 12, 400 mg daily, 2 wks., before Rx L Hand not given, concomitant None",L Hand 2
same,"Tremor Score After Rx, R Hand","essential tremor [1]; patient # 12, 400 mg daily, 2 wks., before Rx R hand 2, concomitant None",R Hand 1
same,"Tremor Score After Rx, Head","essential tremor [1]; patient # 13, 400 mg daily, 3 wks., before Rx Head 0, concomitant None",Head 0
same,"Tremor Score After Rx, L Hand","essential tremor [1]; patient # 13, 400 mg daily, 3 wks., before Rx L Hand 2, concomitant None",L Hand 1
same,"Tremor Score After Rx, R Hand","essential tremor [1]; patient # 13, 400 mg daily, 3 wks., before Rx R Hand 2, concomitant None",R Hand 1
same,"Tremor Score After Rx, Head","essential tremor [1]; patient # 14, 400 mg daily, 5 mos., before Rx Head 0, concomitant None",Head 0
same,"Tremor Score After Rx, L Hand","essential tremor [1]; patient # 14, 400 mg daily, 5 mos., before Rx L Hand 2, concomitant None",L Hand 1
same,"Tremor Score After Rx, R Hand","essential tremor [1]; patient # 14, 400 mg daily, 5 mos., before Rx R Hand 2, concomitant None",R Hand 1
same,"Tremor Score After Rx, Head","essential tremor [1]; patient # 15, 400 mg daily, 1 mo., before Rx Head 0, concomitant None",Head 0
same,"Tremor Score After Rx, R Hand","essential tremor [1]; patient # 15, 400 mg daily, 1 mo., before Rx R Hand 1, concomitant None",R Hand 1
same,symptoms after stopping daily intake,essential tremor [1]; within a few days of stopping the daily high dosage of riboflavin,the symptoms of essential tremor returned
same,effect on symptoms of essential tremor,essential tremor [2],ameliorates the symptoms of essential tremor
same,side effect,[3]; general statement on the treatment,bright yellow urine
same,Side Effects,"[3]; patient # 1, 400 mg daily, 6 wks.",None
same,Side Effects,"[3]; patient # 2, 600 mg daily, 3 mos.",None
same,Side Effects,"[3]; patient # 3, 400 mg daily, 4 wks.",None
same,Side Effects,"[3]; patient # 4, 800 mg daily, 2 wks.",None
same,Side Effects,"[3]; patient # 5, 400 mg daily, 7 mos., concomitant Inderal LA 80 mg.",None
same,Side Effects,"[3]; patient # 6, 400 mg daily, 12 mos., concomitant Inderal LA 60",None
same,Side Effects,"[3]; patient # 7, 400 mg daily, 4 wks.",None
same,Side Effects,"[3]; patient # 8, 600 mg daily, 4 wks., concomitant Topamax",None
same,Side Effects,"[3]; patient # 9, 400 mg daily, 4 wks., concomitant Mysoline, Inderal and Topamax",None
same,Side Effects,"[3]; patient # 10, 800 mg daily, 4 mos., concomitant Mysoline, Inderal and Topamax",None
same,Side Effects,"[3]; patient # 11, 400 mg daily, 1 year",None
same,Side Effects,"[3]; patient # 12, 400 mg daily, 2 wks.",None
same,Side Effects,"[3]; patient # 13, 400 mg daily, 3 wks.",None
same,Side Effects,"[3]; patient # 14, 400 mg daily, 5 mos.",None
same,Side Effects,"[3]; patient # 15, 400 mg daily, 1 mo.",None
same,seizure frequency,[4],decreased
same,tremor on action and intention,[4],significantly improved
same,head and hand findings following treatment,essential tremor [5]; additional three months with just daily Riboflavin (800 mg) and coenzyme Q10 (1000 mg),stable head and hand findings
same,"tremor score, Head",essential tremor [5]; [6],0
same,"tremor score, Left Hand",essential tremor [5]; [6],1
same,"tremor score, Right Hand",essential tremor [5]; [6],0
same,"tremor score, Head","essential tremor [5]; after three months of daily Riboflavin 400 mg + Coenzyme Q10 1000 mg + Thiamine 50 mg + Niacin 50 mg + Pantothenic Acid 50 mg, before Head 0",0
same,"tremor score, Left Hand","essential tremor [5]; after three months of daily Riboflavin 400 mg + Coenzyme Q10 1000 mg + Thiamine 50 mg + Niacin 50 mg + Pantothenic Acid 50 mg, before Left Hand 3",2
same,"tremor score, Right Hand","essential tremor [5]; after three months of daily Riboflavin 400 mg + Coenzyme Q10 1000 mg + Thiamine 50 mg + Niacin 50 mg + Pantothenic Acid 50 mg, before Right Hand 2",1
same,head and hand findings,essential tremor [5]; thereafter a year with just Riboflavin 800 mg daily,stable head and hand findings
same,tremor when treatment was missed,essential tremor [5]; treatment missed for two days or more,prior untreated levels of tremor returned
